In PubChem BioAssay (NCI):
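GI50: concentration for 50% inhibition of growth. At the TGI there is no net growth.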

Columns and labels:
Assay in all cases: NCI anticancer screen, dose series, 384-well format
UACC-257 melanoma = system: UACC-257 melanoma
MDA-MB-435 melanoma = system: MDA-MB-435 melanoma
MCF7 breast = system: MCF7 breast
TK-10 renal = system: TK-10 renal
HCC-2998 colon = system: HCC-2998 colon
COLO 205 colon = system: COLO 205 colon
NCI-H322M lung = system: NCI-H322M lung
A498 renal = system: A498 renal
SNB-19 CNS = system: SNB-19 CNS
U251 glioblastoma = system: U251 glioblastoma
HCT-116 colon = system: HCT-116 colon
HOP-62 NSCLC = system: HOP-62 NSCLC
OVCAR-8 ovarian = system: OVCAR-8 ovarian
SR leukemia = system: SR leukemia
MALME-3M melanoma = system: MALME-3M melanoma
ACHN renal = system: ACHN renal
CAKI-1 renal = system: CAKI-1 renal
M14 melanoma = system: M14 melanoma
SN12C renal = system: SN12C renal
NCI-H522 lung = system: NCI-H522 lung
LOX IMVI melanoma = system: LOX IMVI melanoma
IGROV1 ovarian = system: IGROV1 ovarian
SNB-75 CNS = system: SNB-75 CNS
NCI-H460 NSCLC = system: NCI-H460 NSCLC
SK-MEL-28 melanoma = system: SK-MEL-28 melanoma
NCI/ADR-RES ovarian = system: NCI/ADR-RES ovarian
SK-OV-3 ovarian = system: SK-OV-3 ovarian

Cc1ccc(Nc2nccc(N(C)c3ccc4c(C)n(C)nc4c3)n2)cc1S(N)(=O)=O was tested. Which GI50 (UACC-257 melanoma) did it give?
Its GI50 is 12 µM.

What about the TGI (UACC-257 melanoma) of the same compound?
The TGI was 62.2 µM.

What about the GI50 (MDA-MB-435 melanoma) of the same compound?
Its GI50 is 78.6 µM.

And the TGI (MDA-MB-435 melanoma)?
The TGI was over 100 µM.

And the GI50 (MCF7 breast)?
Its GI50 is 7.41 µM.

What about the TGI (MCF7 breast) of the same compound?
Its TGI is over 100 µM.

And the GI50 (TK-10 renal)?
The GI50 was 31.6 µM.

And the TGI (TK-10 renal)?
Its TGI is over 100 µM.

And the GI50 (HCC-2998 colon)?
Its GI50 is over 100 µM.

What about the TGI (HCC-2998 colon) of the same compound?
The TGI was over 100 µM.

And the GI50 (COLO 205 colon)?
Its GI50 is 14 µM.

What about the TGI (COLO 205 colon) of the same compound?
The TGI was over 100 µM.

What about the GI50 (NCI-H322M lung) of the same compound?
Its GI50 is 7.64 µM.

And the TGI (NCI-H322M lung)?
Its TGI is 45.5 µM.

What about the GI50 (A498 renal) of the same compound?
The GI50 was 6.05 µM.

What about the TGI (A498 renal) of the same compound?
Its TGI is 90.9 µM.

What about the GI50 (SNB-19 CNS) of the same compound?
Its GI50 is over 100 µM.

What about the TGI (SNB-19 CNS) of the same compound?
Its TGI is over 100 µM.

And the GI50 (U251 glioblastoma)?
The GI50 was 9.87 µM.

What about the TGI (U251 glioblastoma) of the same compound?
The TGI was over 100 µM.

What about the GI50 (HCT-116 colon) of the same compound?
The GI50 was 5.38 µM.

And the TGI (HCT-116 colon)?
The TGI was over 100 µM.

And the GI50 (HOP-62 NSCLC)?
Its GI50 is 6.28 µM.

What about the TGI (HOP-62 NSCLC) of the same compound?
Its TGI is 34.5 µM.

What about the GI50 (OVCAR-8 ovarian) of the same compound?
The GI50 was 8.01 µM.

And the TGI (OVCAR-8 ovarian)?
Its TGI is 61.3 µM.

And the GI50 (SR leukemia)?
Its GI50 is 6.38 µM.

And the TGI (SR leukemia)?
The TGI was 12.1 µM.

And the GI50 (MALME-3M melanoma)?
Its GI50 is 2.73 µM.

What about the TGI (MALME-3M melanoma) of the same compound?
The TGI was over 100 µM.

And the GI50 (ACHN renal)?
The GI50 was 6.18 µM.

And the TGI (ACHN renal)?
Its TGI is over 100 µM.

And the GI50 (CAKI-1 renal)?
The GI50 was 3.78 µM.

What about the TGI (CAKI-1 renal) of the same compound?
The TGI was over 100 µM.

And the GI50 (M14 melanoma)?
The GI50 was 8.19 µM.

And the TGI (M14 melanoma)?
Its TGI is 52.9 µM.

And the GI50 (SN12C renal)?
The GI50 was 7.86 µM.

What about the TGI (SN12C renal) of the same compound?
The TGI was over 100 µM.

And the GI50 (NCI-H522 lung)?
Its GI50 is 6.73 µM.

What about the TGI (NCI-H522 lung) of the same compound?
The TGI was 99.3 µM.

And the GI50 (LOX IMVI melanoma)?
The GI50 was 3.62 µM.

What about the TGI (LOX IMVI melanoma) of the same compound?
The TGI was 40.4 µM.

What about the GI50 (IGROV1 ovarian) of the same compound?
Its GI50 is 5.68 µM.

And the TGI (IGROV1 ovarian)?
Its TGI is over 100 µM.

And the GI50 (SNB-75 CNS)?
The GI50 was 2.51 µM.

And the TGI (SNB-75 CNS)?
The TGI was 29 µM.

And the GI50 (NCI-H460 NSCLC)?
The GI50 was 5.27 µM.

What about the TGI (NCI-H460 NSCLC) of the same compound?
Its TGI is over 100 µM.

What about the GI50 (SK-MEL-28 melanoma) of the same compound?
The GI50 was 55.2 µM.

And the TGI (SK-MEL-28 melanoma)?
Its TGI is over 100 µM.

And the GI50 (NCI/ADR-RES ovarian)?
Its GI50 is 30.5 µM.

And the TGI (NCI/ADR-RES ovarian)?
The TGI was 93.6 µM.

What about the GI50 (SK-OV-3 ovarian) of the same compound?
Its GI50 is 6.47 µM.
